Laboratory results: PMC12640667 (Chemmedchem, 2025)
Where “and” joins values, the source holds several entries; their conditions need not be identical. Equal values may be shown once. Read-outs that look alike come from different tables or passages of the source.

Tests used:
[1] = cited from earlier work
[2] = cited from earlier work; remark: listed apart in the source
Hb [3] = molecular target: T1, Hb (Homo sapiens, UniProt P69905); test: Oxygen equilibrium curve; type: biochemical; conditions: 2 mM; SS blood lysates; relative to untreated controls
Hb [4] = molecular target: T1, Hb; test: Time-dependent Hb oxygen equilibrium; type: biochemical; conditions: at 3 h; 2 mM; normal whole blood, hematocrit 20%, 37 °C
[5] = test system: human cytochrome P450 (CYP) enzymes; test: CYP inhibition panel of seven CYP enzymes, pooled human liver microsomes; type: in vitro ADME; conditions: CYP1A2, CYP2C8, CYP2C9, CYP2C19, CYP2D6, CYP3A4, CYP2B6; 0.1–100 µM
Hb [6] = molecular target: T1, Hb; test: Hb modification; type: binding; conditions: 2 mM; SS blood lysates; percentage fraction of total Hb area

| % P50 shift (Hb [3]) | P50 shift (Hb [4]) [%] | inhibition of liver CYP isozymes [5] | % Hb modification (Hb [6]) [%] | SMILES | half‐life [1] [h] | aq. solubility ([2]; in water at 25 °C) [µg/mL] | aq. solubility ([2]; at 25 °C, ref PubChem CID 237,332) |
| --- | --- | --- | --- | --- | --- | --- | --- |
|  |  |  |  | CC(C)n1nccc1-c1ncccc1COc1cccc(O)c1C=O [Voxelotor] | > 50 | < 100 |  |
| 27% and 27.2 ± 4.9% | 35 | no inhibition | 33.8 ± 11.7 | O=Cc1ccc(CO)o1 [5‐HMF, 5‐hydroxymethylfurfural] | < 2.2 |  | ≈ 400 mg mL^−1 |
